Legend:
Type in all cases: in vivo
[1] = tested on: ivyleaf morningglory (Ipomoea hederacea, IPOHE); experiment: Pre-emerge test, greenhouse herbicide activity screening; conditions: rated 14 days after application, 0 = no damage, 100 = complete death
Method in brief: (§1)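 Compounds in acetone were track-sprayed at 187 l/ha, 15–1000 g ai/ha, onto sandy loam pots. Pre-emerge seeds were sown one day before spraying, with surface watering afterwards. Post-emerge plants were at the 2–3 leaf stage and sprayed with 0.25% v/v non-ionic surfactant. Injury was rated 0–100 at 14 days.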

[2] = tested on: barnyardgrass (Echinochloa crus-galli, ECHCG); experiment: as above; conditions: rated 14 days after application, 0 = no damage, 100 = complete death
Method in brief: as §1

[3] = tested on: large crabgrass (Digitaria sanguinalis, DIGSA); experiment: as above; conditions: rated 14 days after application, 0 = no damage, 100 = complete death
Method in brief: as §1

[4] = tested on: sicklepod (Cassia obtusifolia, CASOB); experiment: as above; conditions: rated 14 days after application, 0 = no damage, 100 = complete death
Method in brief: as §1

[5] = tested on: velvetleaf (Abutilon theophrasti, ABUTH); experiment: as above; conditions: rated 14 days after application, 0 = no damage, 100 = complete death
Method in brief: as §1

[6] = tested on: green foxtail (Setaria viridis, SETVI); experiment: as above; conditions: rated 14 days after application, 0 = no damage, 100 = complete death
Method in brief: as §1

[7] = tested on: johnsongrass (Sorghum halepense, SORHA); experiment: as above; conditions: rated 14 days after application, 0 = no damage, 100 = complete death
Method in brief: as §1

[8] = tested on: lambsquarters (Chenopodium album, CHEAL); experiment: as above; conditions: rated 14 days after application, 0 = no damage, 100 = complete death
Method in brief: as §1

[9] = tested on: redroot pigweed (Amaranthus retroflexus, AMARE); experiment: as above; conditions: rated 14 days after application, 0 = no damage, 100 = complete death
Method in brief: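 Visual ratings on a 0-100 scale (0 no damage, 100 all plants dead) were taken at 14 days after treatment. Rates of 15-1000 g ai/ha in acetone, 187 l/ha, were sprayed onto soil one day after planting (pre-emerge) or onto 2-3 leaf plants with 0.25% v/v surfactant (post-emerge).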

[10] = tested on: redroot pigweed (Amaranthus retroflexus, AMARE); experiment: Post-emerge test, greenhouse herbicide activity screening; conditions: post-emerge, 14 days after application, rating scale 0-100
Method in brief: (§2)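 Rating: 0–100 visual injury, 14 DAA. Application: acetone, 187 l/ha, 15–1000 g ai/ha, flat-fan track sprayer with nozzle 40–45 cm above soil or canopy. Post-emerge runs used 0.25% v/v surfactant on 2–3 leaf plants.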

[11] = tested on: ivyleaf morningglory (Ipomoea hederacea, IPOHE); experiment: as above; conditions: post-emerge, 14 days after application, rating scale 0-100
Method in brief: as §2

[12] = tested on: barnyardgrass (Echinochloa crus-galli, ECHCG); experiment: as above; conditions: post-emerge, 14 days after application, rating scale 0-100
Method in brief: as §2

[13] = tested on: large crabgrass (Digitaria sanguinalis, DIGSA); experiment: as above; conditions: post-emerge, 14 days after application, rating scale 0-100
Method in brief: as §2

[14] = tested on: sicklepod (Cassia obtusifolia, CASOB); experiment: as above; conditions: post-emerge, 14 days after application, rating scale 0-100
Method in brief: as §2

[15] = tested on: velvetleaf (Abutilon theophrasti, ABUTH); experiment: as above; conditions: post-emerge, 14 days after application, rating scale 0-100
Method in brief: as §2

[16] = tested on: green foxtail (Setaria viridis, SETVI); experiment: as above; conditions: post-emerge, 14 days after application, rating scale 0-100
Method in brief: as §2

[17] = tested on: johnsongrass (Sorghum halepense, SORHA); experiment: as above; conditions: post-emerge, 14 days after application, rating scale 0-100
Method in brief: as §2

[18] = tested on: lambsquarters (Chenopodium album, CHEAL); experiment: as above; conditions: post-emerge, 14 days after application, rating scale 0-100
Method in brief: as §2

[19] = tested on: field corn (Zea mays L., var. Dekalb 535, CORN); experiment: Pre-emerge test, crop safety; conditions: rated 14 days after application, 0 = no damage, 100 = complete death
Method in brief: (§3)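 Applied at 15–1000 g ai/ha from acetone in 187 l/ha spray volume. Post-emergence applications included 0.25% v/v non-ionic surfactant and reached plants sown 8–21 days before. Pre-emergence applications were incorporated by surface watering. Efficacy or crop damage was rated on a 0–100 scale after 14 days.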

[20] = tested on: upland rice (Oryza sp., var. Tebonnet, RICE); experiment: Pre-emerge test, crop safety; conditions: rated 14 days after application, 0 = no damage, 100 = complete death
Method in brief: as §3

[21] = tested on: field corn (Zea mays L., var. Dekalb 535, CORN); experiment: Post-emerge test, crop safety; conditions: post-emerge, 14 days after application, rating scale 0-100
Method in brief: as §1

[22] = tested on: upland rice (Oryza sp., var. Tebonnet, RICE); experiment: Post-emerge test, crop safety; conditions: post-emerge, 14 days after application, rating scale 0-100
Method in brief: as §1

COc1c(Cl)cc(F)c(-n2c(=O)cc(C(F)(F)F)n(C)c2=O)c1NC(=O)c1ccc2ccccc2c1 [2-75]
Pre-emerge Herbicidal Activity, phytotoxicity rating (0-100), IPOHE ([1]; 63 g ai/ha): 20
Pre-emerge Herbicidal Activity, phytotoxicity rating (0-100), IPOHE ([1]; 250 g ai/ha): 60
Pre-emerge Herbicidal Activity, phytotoxicity rating (0-100), ECHCG ([2]; 63 g ai/ha): 20
Pre-emerge Herbicidal Activity, phytotoxicity rating (0-100), ECHCG ([2]; 250 g ai/ha): 100
Pre-emerge Herbicidal Activity, phytotoxicity rating (0-100), DIGSA ([3]; 63 g ai/ha): 70
Pre-emerge Herbicidal Activity, phytotoxicity rating (0-100), DIGSA ([3]; 250 g ai/ha): 100
Pre-emerge Herbicidal Activity, phytotoxicity rating (0-100), CASOB ([4]; 63 g ai/ha): 100
Pre-emerge Herbicidal Activity, phytotoxicity rating (0-100), CASOB ([4]; 250 g ai/ha): 100
Pre-emerge Herbicidal Activity, phytotoxicity rating (0-100), ABUTH ([5]; 63 g ai/ha): 100
Pre-emerge Herbicidal Activity, phytotoxicity rating (0-100), ABUTH ([5]; 250 g ai/ha): 100
Pre-emerge Herbicidal Activity, phytotoxicity rating (0-100), SETVI ([6]; 63 g ai/ha): 100
Pre-emerge Herbicidal Activity, phytotoxicity rating (0-100), SETVI ([6]; 250 g ai/ha): 100
Pre-emerge Herbicidal Activity, phytotoxicity rating (0-100), SORHA ([7]; 63 g ai/ha): 20
Pre-emerge Herbicidal Activity, phytotoxicity rating (0-100), SORHA ([7]; 250 g ai/ha): 60
Pre-emerge Herbicidal Activity, phytotoxicity rating (0-100), CHEAL ([8]; 63 g ai/ha): 100
Pre-emerge Herbicidal Activity, phytotoxicity rating (0-100), CHEAL ([8]; 250 g ai/ha): 100
Pre-emerge Herbicidal Activity, phytotoxicity rating (0-100), AMARE ([9]; 63 g ai/ha): 100
Pre-emerge Herbicidal Activity, phytotoxicity rating (0-100), AMARE ([9]; 250 g ai/ha): 100
phytotoxicity rating AMARE ([10]; 63 g ai/ha): 100
phytotoxicity rating AMARE ([10]; 250 g ai/ha): 100
phytotoxicity rating IPOHE ([11]; 63 g ai/ha): 100
phytotoxicity rating IPOHE ([11]; 250 g ai/ha): 100
phytotoxicity rating ECHCG ([12]; 63 g ai/ha): 10
phytotoxicity rating ECHCG ([12]; 250 g ai/ha): 50
phytotoxicity rating DIGSA ([13]; 63 g ai/ha): 0
phytotoxicity rating DIGSA ([13]; 250 g ai/ha): 20
phytotoxicity rating CASOB ([14]; 63 g ai/ha): 100
phytotoxicity rating CASOB ([14]; 250 g ai/ha): 100
phytotoxicity rating ABUTH ([15]; 63 g ai/ha): 100
phytotoxicity rating ABUTH ([15]; 250 g ai/ha): 100
phytotoxicity rating SETVI ([16]; 63 g ai/ha): 30
phytotoxicity rating SETVI ([16]; 250 g ai/ha): 80
phytotoxicity rating SORHA ([17]; 63 g ai/ha): 20
phytotoxicity rating SORHA ([17]; 250 g ai/ha): 40
phytotoxicity rating CHEAL ([18]; 63 g ai/ha): 100
phytotoxicity rating CHEAL ([18]; 250 g ai/ha): 100
Pre-emerge phytotoxicity rating (0-100), crop damage, CORN ([19]; 63 g ai/ha): 0
Pre-emerge phytotoxicity rating (0-100), crop damage, CORN ([19]; 250 g ai/ha): 0
Pre-emerge phytotoxicity rating (0-100), crop damage, RICE ([20]; 63 g ai/ha): 30
Pre-emerge phytotoxicity rating (0-100), crop damage, RICE ([20]; 250 g ai/ha): 80
phytotoxicity rating CORN ([21]; 63 g ai/ha): 10
phytotoxicity rating CORN ([21]; 250 g ai/ha): 15
phytotoxicity rating RICE ([22]; 63 g ai/ha): 70
phytotoxicity rating RICE ([22]; 250 g ai/ha): 80

COc1c(Cl)cc(F)c(-n2c(=O)cc(C(F)(F)F)n(N)c2=O)c1NC(=O)c1ccc2ccccc2c1 [2-77]
Pre-emerge Herbicidal Activity, phytotoxicity rating (0-100), IPOHE ([1]; 63 g ai/ha): 0
Pre-emerge Herbicidal Activity, phytotoxicity rating (0-100), IPOHE ([1]; 250 g ai/ha): 30
Pre-emerge Herbicidal Activity, phytotoxicity rating (0-100), ECHCG ([2]; 63 g ai/ha): 0
Pre-emerge Herbicidal Activity, phytotoxicity rating (0-100), ECHCG ([2]; 250 g ai/ha): 0
Pre-emerge Herbicidal Activity, phytotoxicity rating (0-100), DIGSA ([3]; 63 g ai/ha): 0
Pre-emerge Herbicidal Activity, phytotoxicity rating (0-100), DIGSA ([3]; 250 g ai/ha): 30
Pre-emerge Herbicidal Activity, phytotoxicity rating (0-100), CASOB ([4]; 63 g ai/ha): 0
Pre-emerge Herbicidal Activity, phytotoxicity rating (0-100), CASOB ([4]; 250 g ai/ha): 30
Pre-emerge Herbicidal Activity, phytotoxicity rating (0-100), ABUTH ([5]; 63 g ai/ha): 30
Pre-emerge Herbicidal Activity, phytotoxicity rating (0-100), ABUTH ([5]; 250 g ai/ha): 100
Pre-emerge Herbicidal Activity, phytotoxicity rating (0-100), SETVI ([6]; 63 g ai/ha): 0
Pre-emerge Herbicidal Activity, phytotoxicity rating (0-100), SETVI ([6]; 250 g ai/ha): 60
Pre-emerge Herbicidal Activity, phytotoxicity rating (0-100), SORHA ([7]; 63 g ai/ha): 0
Pre-emerge Herbicidal Activity, phytotoxicity rating (0-100), SORHA ([7]; 250 g ai/ha): 0
Pre-emerge Herbicidal Activity, phytotoxicity rating (0-100), CHEAL ([8]; 63 g ai/ha): 90
Pre-emerge Herbicidal Activity, phytotoxicity rating (0-100), CHEAL ([8]; 250 g ai/ha): 100
Pre-emerge Herbicidal Activity, phytotoxicity rating (0-100), AMARE ([9]; 63 g ai/ha): 70
Pre-emerge Herbicidal Activity, phytotoxicity rating (0-100), AMARE ([9]; 250 g ai/ha): 100
phytotoxicity rating AMARE ([10]; 63 g ai/ha): 10
phytotoxicity rating AMARE ([10]; 250 g ai/ha): 100
phytotoxicity rating IPOHE ([11]; 63 g ai/ha): 60
phytotoxicity rating IPOHE ([11]; 250 g ai/ha): 95
phytotoxicity rating ECHCG ([12]; 63 g ai/ha): 0
phytotoxicity rating ECHCG ([12]; 250 g ai/ha): 0
phytotoxicity rating DIGSA ([13]; 63 g ai/ha): 0
phytotoxicity rating DIGSA ([13]; 250 g ai/ha): 0
phytotoxicity rating CASOB ([14]; 63 g ai/ha): 40
phytotoxicity rating CASOB ([14]; 250 g ai/ha): 100
phytotoxicity rating ABUTH ([15]; 63 g ai/ha): 100
phytotoxicity rating ABUTH ([15]; 250 g ai/ha): 100
phytotoxicity rating SETVI ([16]; 63 g ai/ha): 0
phytotoxicity rating SETVI ([16]; 250 g ai/ha): 0
phytotoxicity rating SORHA ([17]; 63 g ai/ha): 0
phytotoxicity rating SORHA ([17]; 250 g ai/ha): 0
phytotoxicity rating CHEAL ([18]; 63 g ai/ha): 100
phytotoxicity rating CHEAL ([18]; 250 g ai/ha): 80
Pre-emerge phytotoxicity rating (0-100), crop damage, CORN ([19]; 63 g ai/ha): 0
Pre-emerge phytotoxicity rating (0-100), crop damage, CORN ([19]; 250 g ai/ha): 0
Pre-emerge phytotoxicity rating (0-100), crop damage, RICE ([20]; 63 g ai/ha): 0
Pre-emerge phytotoxicity rating (0-100), crop damage, RICE ([20]; 250 g ai/ha): 20
phytotoxicity rating CORN ([21]; 63 g ai/ha): 0
phytotoxicity rating CORN ([21]; 250 g ai/ha): 10
phytotoxicity rating RICE ([22]; 63 g ai/ha): 20
phytotoxicity rating RICE ([22]; 250 g ai/ha): 40
